From patent US20230079439A1, “Compositions and Methods for Enhancing Beta Cell Maturation, Health and Function” (THE REGENTS OF THE UNIVERSITY OF CALIFORNIA, priority 2016, published 2023)

Legend:
isolated mouse islets = assay: GSIS test in isolated mouse islets; assay type: cell-based; conditions: 24 h; 2.5 or 16.7 mM glucose
Protocol: Mice (6 in total) were euthanized by cervical dislocation; the mouse torso was saturated with 70% ethanol. The abdominal cavity was opened completely from anus to diaphragm. The body and tail of the pancreas were removed and separated from fat and large vessels. The pancreas was washed once with HBSS solution and cut into small pieces of approximately 2×3 mm with a scissors. After an additional wash with HBSS solution, the pieces of pancreas were placed in two 50 ml Falcon tubes containing 4 ml of a freshly prepared solution of collagenase (2 mg/ml). After vigorous shaking at 37° C. for approximately 20 min, the collagenase digestion was interrupted by adding 45 ml of ice-chilled HBSS solution. The digested pancreatic tissue was spinned down at 330×g for 3 minutes. Supernatant was removed again and an additional 45 mL of “islet media” was added and spinned down at 330×g for 3 minutes. The histopaque was decanted and the tubes were inverted to drain on an absorbent paper towel for 1 min. The pellet was resuspended in 20 ml for each tube in cold 30% Ficoll solution. […]
Frozen islets medium or lysates were thawed on ice and diluted with water (a typical dilution for the lysate was 300× and for the supernatant—5×). […] The signal was determined by a SpectraMax M5 spectrophotometer. The concentrations of insulin in the samples were normalized by the total protein determined by the BCA assay.

INS-1E cells [1] = assay: Glucose-stimulated insulin secretion (GSIS) in INS-1E cells; assay type: cell-based, rat; conditions: INS-1E cells; 2.5 mM or 16.7 mM glucose
Protocol: FIG. 3, comprising FIG. 3A through FIG. 3D, depicts the evaluation of the biological activity of HSA-112 in INS-1E cells. FIG. 3A depicts a dose-response analysis of the effect of HSA-112 on the rate of insulin secretion in INS-1E cells. The INS-1E cells were grown and treated with increasing doses of HSA-112 for 24 h, as described in Methods. Subsequently, cells were mixed with different concentrations of HSA-112, as indicated in the graph (red columns), PEG2000 (green columns), and free peptide (blue columns) and were seeded in 12-well plates. After 24 h the cells were taken to a GSIS in the presence of 2.5 mM (weak color bars) or 16.7 mM (strong color bars) glucose. FIG. 3B depicts the time-course analysis of the effect of HSA-112 on the rate of insulin secretion in INS-1E cells. The INS-1E cells were prepared for the experiment as described above with 50 μM of HSA-112, PEG2000, or free peptide. After incubation, as indicated in the graph, the cells were taken to a GSIS as described above. FIG. 3C depicts the cell protective effect of HSA-112 under oxidative stress conditions. Cells were prepared for the experiment as described in Methods. Trolox was used as a positive control at a concentration of 100 μM. The oxidative stress was induced in the tissue culture, as described in Methods. Standard MTT analysis (also described in Methods) was used for evaluating the effect of HSA-112 on cell viability. FIG. 3D depicts INS-1E cell proliferation. Cells were prepared for the experiment as described above. After 24 h the cells were colored by trypan blue and counted as described in Methods *p<0.05, n=6. MEAN±SE.
FIG. 7, comprising FIG. 7A through FIG. 7G, depicts the evaluation of the biological activity of HSA-28P in INS-1E cells. FIG. 7A depicts dose-response analysis of the effect of HSA-28P on the rate of insulin secretion in INS-1E cells. The INS-1E cells were grown and trypsinized as described in Methods. Subsequently, cells were mixed with the indicated concentrations of HSA-28P (red columns), non-relevant peptide nanoparticles (NRPNP, green columns), and naked nanoparticles (NP, blue columns) and were seeded in 12-well plates. After 24 h the cells were taken to a GSIS in the presence of 2.5 mM (weak color bars) or 16.7 mM (strong color bars) glucose. FIG. 7B depicts time-course analysis of the effect of HSA-28P on the rate of insulin secretion in INS-1E cells. The INS-1E cells were prepared for the experiment as described above with 1.34 μM of both HSA-28P or NRPNP, and 0.76 μg/ml of NP. After incubation for the time indicated in the graph, the cells were taken to a GSIS as described in Methods. FIG. 7C depicts the measurement of insulin content. The RIA-assay was performed for INS-1E lysates. FIG. 7D depicts the Effect of HSA-28P on the cells viability under oxidative stress conditions. INS-1E cells were incubated for 24 h with a medium supplemented with HSA-28P (3 μM), or HSA-28P1/2 (1.5 μM), or NPs covered by phantom random peptide (PPNP, 3 μM), or NP (0.76 μg/ml), or HSA-28 (3 μM) and trolox, as a positive antioxidant control (1 mM). After the incubation time, 50 mU/ml of glucose oxidase (GO) was added for an additional 1.15 h. Upon completion of the experiments, a standard MTT assay was conducted as described in Methods. Cell viability is presented as a percentage in comparison to non-treated cells. FIG. 7E depicts the effect of HSA-28P on the cell proliferation rate. Experiments were conducted on INS-1E cells that were seeded in 6-well plates. INS-1E cells were treated as described in Panel D. Cells were detached by trypsin and counted as described in Methods and then were visualized with a Cells Sense Live Imaging microscope. FIG. 7F depicts light microscope images of untreated cells. FIG. 7G depicts light microscope images of cells that were treated with HSA-28P. *p<0.05, n=3. MEAN±SE. […]

INS-1E cells [2] = assay: Cell counting (trypan blue) / proliferation and cluster formation; assay type: cell-based, rat; conditions: 24 h
Protocol: FIG. 7, comprising FIG. 7A through FIG. 7G, depicts the evaluation of the biological activity of HSA-28P in INS-1E cells. FIG. 7A depicts dose-response analysis of the effect of HSA-28P on the rate of insulin secretion in INS-1E cells. The INS-1E cells were grown and trypsinized as described in Methods. Subsequently, cells were mixed with the indicated concentrations of HSA-28P (red columns), non-relevant peptide nanoparticles (NRPNP, green columns), and naked nanoparticles (NP, blue columns) and were seeded in 12-well plates. After 24 h the cells were taken to a GSIS in the presence of 2.5 mM (weak color bars) or 16.7 mM (strong color bars) glucose. FIG. 7B depicts time-course analysis of the effect of HSA-28P on the rate of insulin secretion in INS-1E cells. The INS-1E cells were prepared for the experiment as described above with 1.34 μM of both HSA-28P or NRPNP, and 0.76 μg/ml of NP. After incubation for the time indicated in the graph, the cells were taken to a GSIS as described in Methods. FIG. 7C depicts the measurement of insulin content. The RIA-assay was performed for INS-1E lysates. […] INS-1E cells were treated as described in Panel D. Cells were detached by trypsin and counted as described in Methods and then were visualized with a Cells Sense Live Imaging microscope. […]
Cells were detached by trypsin and colored by Trypan blue. Only uncolored cells were counted. […]

INS-1E cells [3] = assay: Insulin secretion of INS-1E cells after 5 h incubation with peptidomimetic agent; assay type: cell-based, rat; conditions: INS-1 β cells
Protocol: FIG. 22, comprising FIG. 22A through FIG. 22C, depicts experimental results of incubation of INS1E cells with peptidomimetic agent. A peptidomimetic agent was designed to mimic neuroligin's binding site for neurexin. Monomers and dimers had no effect on insulin secretion. Multiple dimers were conjugated to PEG-2000 to simulate clustering (reagent HSA-112). Dimers were also clustered on nanoparticles (HSA-637). FIG. 22A depicts INS-1E cells were incubated for 5 h with HSA-112 (blue columns) or HSA-637 (purple) at different concentrations or with vehicle alone (black), washed, and then tested for insulin secretion at 3 mM glucose (striped columns) or at 20 mM glucose (solid columns). […] FIG. 22B depicts a time course: insulin secretion was analyzed after the number of hours indicated following a 5 h incubation with 100 μM HSA-112 (blue), 500 nM HSA-637 (purple) or vehicle alone (black). Incubations were with 3 mM glucose (striped columns) or 20 mM glucose (solid columns). FIG. 22C depicts microscopy where INS-1E cells were incubated with HSA-637 conjugated to a fluorescent dye (Cy5, red) and then washed. Membranes were stained with Alexa Fluor 488 (green). For better visualization, microscopy was in hypotonic saline causing the INS-1E cells to swell and become more rounded.

Compound	effect on GSIS in isolated mouse islets (isolated mouse islets)	effect on GSIS (INS-1E cells [1])	amount of cells / proliferation rate (INS-1E cells [2])	effect on insulin secretion (INS-1E cells [3])
N=C(N)NCCC[C@H](N)C(=O)O [L-arginine]	significantly raised GSIS	–	–	–
QQGEFLNYD [HSA-28, short NL-2 mimetic peptide derived from the NL-4/NX-1 crystal complex]	–	did not increase the GSIS	has not shown any effect on the proliferation rate	had no effect
